Patent US11208468B2, “Methods and compositions for treating melanoma” (The Wistar Institute of Anatomy and Biology, priority 2016, dated 2021)

System: melanoma patient PBMC samples WM35, WM3457 and 3451
Assay: Proliferative response, 3HTdR incorporation assay with peptide-pulsed monocytes
Assay type: cell-based, human
Settings: monocytes pulsed 8 hours with 25 μM peptide, cultured with PBMC for 5 days; each sample assayed
Method: The peptides were screened for T-helper sequences (Th): Peptide P8 is amino acids residues 608-622 of BRAF, i.e., […] (SEQ ID NO: 15). Peptide P9 is amino acids residues […] of BRAF, i.e., […] (SEQ ID NO: 16). Peptide P10 is amino acids residues […] of BRAF, i.e., […] (SEQ ID NO: 17). These peptides bind to HLA-DR alleles using computer algorithms, as disclosed in Example 1 below. Proliferative responses were determined by standard ^3HTdR incorporation assay.
A number of such peptides were assayed as follows: Adherent monocytes (5×10^4/well) were pulsed for 8 hours with synthetic peptides (25 μM): Peptide 8 (SEQ ID NO:15), Peptide 9 (SEQ ID NO:16), and Peptide 10 (SEQ ID NO: 17). At the end of incubation, excess peptides were removed and the monocytes were cultured with one of three melanoma patient PBMC samples labeled WM35, WM3457 and 3451 (1×10^5) for 5 days.
Data are expressed as mean cpm (triplicate determinations) plus SD (bar) of ^3HTdR incorporation.

Sequence	Proliferative response (3HTdR incorporation, mean cpm) versus control peptide
EDLTVKIGDFGLATV (listed as Homo sapiens) [Peptide 9]	Significantly (p<0.01) different values compared to control
SHQFEQLSGSILWHA (listed as Homo sapiens) [Peptide 8]	Significantly (p<0.01) different values compared to control
